The test system of one assay is Y5. On the set-up: method as in PMID 12182951. The settings on record: rats, in vivo; cited from earlier work.
In assay [1] the target is T1, NPY Y1 receptor (Homo sapiens, UniProt P25929).
T1 construct: SK-N-MC cells endogenously expressing Y1; host or cells: SK-N-MC
T1 sequence (P25929 1-384): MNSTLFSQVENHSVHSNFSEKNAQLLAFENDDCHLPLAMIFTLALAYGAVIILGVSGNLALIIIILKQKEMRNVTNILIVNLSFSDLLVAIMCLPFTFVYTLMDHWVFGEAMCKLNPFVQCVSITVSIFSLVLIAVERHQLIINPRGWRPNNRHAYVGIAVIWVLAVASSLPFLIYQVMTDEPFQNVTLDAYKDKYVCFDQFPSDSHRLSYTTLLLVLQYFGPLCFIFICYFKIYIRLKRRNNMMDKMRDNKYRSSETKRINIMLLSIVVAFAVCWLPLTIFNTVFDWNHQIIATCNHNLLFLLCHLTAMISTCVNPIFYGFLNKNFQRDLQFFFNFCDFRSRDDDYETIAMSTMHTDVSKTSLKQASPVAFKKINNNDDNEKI
As to the kind of experiment: Forskolin-stimulated adenylate cyclase activity (cAMP flashplate assay) in SK-N-MC cells. It counts as cell-based. The following applies: 10 μM forskolin; for Functional assay cAMP for Y1: analog 20 μM alone or with 100 nM [Leu31,Pro34]-hPYY. How it is done: Adenylate cyclase activity was determined in SK-N-MC cells using the adenylate cyclase activation flashplate assay (SMP004) from PerkinElmer (Waltham, MA, USA). SK-N-MC cells were seeded in 96-well culture plates at 25,000 cells/well and cultured for 48 h at 37°C and 5% CO2. Culture medium was then removed from the wells and fresh medium (100 μL) containing 0.5 mM 3-isobutyl-1-methylxanthine (IBMX) was added to each well. Cells were incubated for 30 min at 37°C. Medium was then removed and replaced with fresh medium containing 0.5 mM IBMX, with or without 10 μM forskolin and various concentrations of the peptides to be analyzed. Cells were incubated for 30 min at 37°C. After removal of the medium, cells were lysed and cAMP accumulation was determined using the SMP004 kit from PerkinElmer according to the instructions of the manufacturers.
Figure 4 Effect of various Y1 affine analogs on forskolin-stimulated intracellular cAMP accumulation in SK-N-MC cells. Cells were incubated for 30 min with 10 μM forskolin either alone, or with 10 μM forskolin in the presence of 20 μM or 100 nM of the reference compound [Leu^31, Pro^34]-PYY (LP-PYY), or with 10 μM forskolin in the presence of the various Y1 affine analogs either alone at a concentration of 20 μM or at a concentration of 20 μM in the presence of 100 nM LP-PYY. Intracellular cAMP accumulation was then determined as described in Methods. Results are shown as percentage of the 10 μM forskolin effect on intracellular cAMP accumulation.
Cells were incubated for 30 min with 10 μM forskolin in the presence of [Leu^31, Pro^34]-PYY (LP-PYY) at concentrations ranging between 0.01 nM and 20 μM alone (solid circle) or with 10 μM forskolin in the presence of LP-PYY at concentrations ranging between 0.01 nM and 20 μM supplemented with a fixed concentration of 20 μM of the analog 11 (solid square). […] Compound 11 given alone at a concentration of 20 μM has no effect on the accumulation of forskolin-stimulated cAMP (solid triangle).

In assay [2] the target is T1, NPY Y1 receptor. As to the kind of experiment: Receptor autoradiography competition binding (125I-hPYY) on SK-N-MC cell membrane pellet sections. The following applies: for Y1 binding affinity in words (displacement of 125I-hPYY): SK-N-MC cell membrane pellet sections; for IC50: SK-N-MC membrane pellets, 125I-hPYY displacement, mean ± SEM, n ≥ 3, read-out: Binding affinity Y1 (IC50). How it is done: (§1) The neuroepithelioma cell line SK-N-MC endogenously expressing the NPY Y1 receptor was obtained from ATCC (HTB-10; LGC Standards, Teddington, Middlesex, UK) and cultured at 37°C and 5% CO2 in MEM with GlutaMax I and supplemented with 10% FBS, 100 U/ml penicillin and 100 μg/ml streptomycin, 1 mM MEM sodium pyruvate, and MEM non-essential amino acids (× 1). The neuroblastoma cell line SH-SY5Y endogenously expressing the NPY Y2 receptor, kindly provided by Dr. Paolo Paganetti (Novartis, Basel, Switzerland), was cultured at 37°C and 5% CO2 in MEM/Ham's F12 with GlutaMax I and supplemented with 10% FBS, 100 U/ml penicillin and 100 μg/ml streptomycin, 1 mM MEM sodium pyruvate, and MEM non-essential amino acids (× 1). All culture reagents were from Gibco BRL, Life Technologies, (Grand Island, NY, USA).
(§2) Binding affinities of the compounds were assessed using sections of cell membrane pellets of SK-N-MC for Y1 or SH-SY5Y for Y2, as described before. Briefly, membrane pellets were prepared and stored at -80°C, and receptor autoradiography was performed on 20-μm-thick cryostat (Microm HM 500, Walldorf, Germany) sections of the membrane pellets, mounted on microscope slides and stored at -20°C as previously described for other cell lines and receptors. The slides were preincubated in Krebs-Ringer solution (NaCl 119 mM, KCl 3.2 mM, KH2PO4 1.19 mM, MgSO4 1.19 mM, NaHCO3 25 mM, CaCl2 2.53 mM, D-glucose 10 mM; pH 7.4) for 60 min at room temperature. Then, they were incubated for 120 min in the incubation solution containing the Krebs-Ringer solution, 0.1% BSA, 0.05% bacitracin, and 10,000 cpm/100 μl of the ^125I-labeled human PYY (hPYY; 2,000 Ci/mmol; Anawa, Wangen, Switzerland). Membrane pellet sections were incubated with ^125I-hPYY in increasing concentrations ranging from 0.1 nM up to 1,000 nM of non-labeled hPYY, as control, or with the compounds to be tested. After the incubation, the slides were washed two times for 5 min and then rinsed four times in ice-cold preincubation solution. After drying, the slides were exposed to Kodak films Biomax MR® for 7 days. IC50 values were calculated after quantification of the data using a computer-assisted image processing system (Analysis Imaging System, Interfocus, Mering, Germany). Tissue standards (autoradiographic [^125I] and/or [^14C] microscales, GE Healthcare, Little Chalfont, UK) containing a known amount of isotope, cross-calibrated to tissue-equivalent ligand concentrations were used for quantification.

The target in a further assay is T2, NPY Y2 receptor (Homo sapiens, UniProt P49146).
T2 construct: SH-SY5Y cells endogenously expressing Y2; endogenous in cells; host or cells: SH-SY5Y
T2 sequence (P49146 1-381): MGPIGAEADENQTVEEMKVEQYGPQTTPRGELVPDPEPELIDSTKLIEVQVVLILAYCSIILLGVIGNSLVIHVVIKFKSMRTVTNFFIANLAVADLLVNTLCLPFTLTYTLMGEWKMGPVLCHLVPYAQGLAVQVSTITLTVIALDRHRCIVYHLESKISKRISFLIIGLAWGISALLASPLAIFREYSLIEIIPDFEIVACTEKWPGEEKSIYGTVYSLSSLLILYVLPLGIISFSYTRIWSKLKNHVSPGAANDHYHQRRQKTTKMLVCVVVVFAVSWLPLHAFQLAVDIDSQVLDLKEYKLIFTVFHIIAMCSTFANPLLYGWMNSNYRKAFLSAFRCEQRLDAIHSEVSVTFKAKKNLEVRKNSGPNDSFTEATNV
As to the kind of experiment: Receptor autoradiography competition binding (125I-hPYY) on SH-SY5Y cell membrane pellet sections. The settings on record: SH-SY5Y membrane pellets, 125I-hPYY displacement; n ≥ 3; read-out: Binding affinity Y2 (IC50). The protocol:
as §1, §2

Consider six compounds from paper PMC3250963, “Novel dimeric DOTA-coupled peptidic Y1-receptor antagonists for targeting of neuropeptide Y receptor-expressing cancers” (EJNMMI Research, 2011).

Bridge positions count the residues as written; N and C are the ends. Square brackets hold non-standard residues; d marks the D form. Peptide text beside a SMILES is read from it. I, II: the chains in the order shown. * marks the point of attachment. DOTA = O=C(O)CN1CCN(CC(=O)O)CCN(CC(=O)*)CCN(CC(=O)O)CC1; Nle = CCCC[C@H](N)C(=O)O; Dap = NC[C@H](N)C(=O)O

The term IC50 denotes the concentration needed to halve the response being measured.

As to “Bis(31/31')[Cys^31, Nva^34]NPY(27-36)-NH2”, the “Stimulation of food intake” value in the assay with Y5 is “able to stimulate in vivo the food intake in rats”.

Take `CCCC[C@H](NC(=O)[C@H](CCCNC(=N)N)NC(=O)[C@H](Cc1c[nH]c2ccccc12)NC(=O)[C@H](CSSC[C@H](NC(=O)[C@@H]1CCCN1C(=O)[C@H](CCCCNC(=O)CN1CCN(CC(=O)O)CCN(CC(=O)O)CCN(CC(=O)O)CC1)NC(=O)[C@@H](N)[C@@H](C)CC)C(=O)N[C@@H](Cc1c[nH]c2ccccc12)C(=O)N[C@@H](CCCNC(=N)N)C(=O)N[C@@H](CCCC)C(=O)N[C@@H](CCCNC(=N)N)C(=O)N[C@@H](Cc1ccc(O)cc1)C(N)=O)NC(=O)[C@@H]1CCCN1C(=O)[C@H](CCCCNC(=O)CN1CCN(CC(=O)O)CCN(CC(=O)O)CCN(CC(=O)O)CC1)NC(=O)[C@@H](N)[C@@H](C)CC)C(=O)N[C@@H](CCCNC(=N)N)C(=O)N[C@@H](Cc1ccc(O)cc1)C(N)=O` [Analog 10] (I: H-IK(DOTA)PCWR[Nle]RY-NH2 / II: H-IK(DOTA)PCWR[Nle]RY-NH2; disulfide I:4-II:4): the “Functional assay cAMP for Y1” value at NPY Y1 receptor [1] was “Antagonist”. Further, at NPY Y1 receptor [2], the “Y1 binding affinity in words (displacement of 125I-hPYY)” value is “lower affinity displacements of ^125I-hPYY” and the IC50 is 283 ± 52 nM. In addition, at NPY Y2 receptor, the IC50 was over 1000 nM.

With “[Leu^31, Pro^34]-hPYY [reference compound]”, the “Inhibition of forskolin-stimulated cAMP accumulation by agonist” value at NPY Y1 receptor [1] (agonist at 20 μM and 100 nM) is recorded as “efficiently inhibited forskolin-stimulated cAMP accumulation”.

As for `CCCC[C@H](NC(=O)[C@H](CCCNC(=N)N)NC(=O)[C@H](Cc1c[nH]c2ccccc12)NC(=O)[C@H](CSSC[C@H](NC(=O)[C@@H]1CCCN1C(=O)[C@H](CNC(=O)CN1CCN(CC(=O)O)CCN(CC(=O)O)CCN(CC(=O)O)CC1)NC(=O)[C@@H](N)[C@@H](C)CC)C(=O)N[C@@H](Cc1c[nH]c2ccccc12)C(=O)N[C@@H](CCCNC(=N)N)C(=O)N[C@@H](CCCC)C(=O)N[C@@H](CCCNC(=N)N)C(=O)N[C@@H](Cc1ccc(O)cc1)C(N)=O)NC(=O)[C@@H]1CCCN1C(=O)[C@H](CNC(=O)CN1CCN(CC(=O)O)CCN(CC(=O)O)CCN(CC(=O)O)CC1)NC(=O)[C@@H](N)[C@@H](C)CC)C(=O)N[C@@H](CCCNC(=N)N)C(=O)N[C@@H](Cc1ccc(O)cc1)C(N)=O` [Analog 6] (I: H-I[Dap](DOTA)PCWR[Nle]RY-NH2 / II: H-I[Dap](DOTA)PCWR[Nle]RY-NH2; disulfide I:4-II:4), the half-maximal inhibitory concentration (IC50) at NPY Y1 receptor [2] and on NPY Y2 receptor was over 1000 nM each time.

For `CCCC[C@H](NC(=O)[C@H](CCCNC(=N)N)NC(=O)[C@H](Cc1c[nH]c2ccccc12)NC(=O)[C@H](CSSC[C@H](NC(=O)[C@@H]1CCCN1C(=O)[C@H](CC(N)=O)NC(=O)[C@@H](N)[C@@H](C)CC)C(=O)N[C@@H](Cc1c[nH]c2ccccc12)C(=O)N[C@@H](CCCNC(=N)N)C(=O)N[C@@H](CCCC)C(=O)N[C@@H](CCCNC(=N)N)C(=O)N[C@@H](Cc1ccc(O)cc1)C(N)=O)NC(=O)[C@@H]1CCCN1C(=O)[C@H](CNC(=O)CN1CCN(CC(=O)O)CCN(CC(=O)O)CCN(CC(=O)O)CC1)NC(=O)[C@@H](N)[C@@H](C)CC)C(=O)N[C@@H](CCCNC(=N)N)C(=O)N[C@@H](Cc1ccc(O)cc1)C(N)=O` [Analog 8] (I: H-I[Dap](DOTA)PCWR[Nle]RY-NH2 / II: H-INPCWR[Nle]RY-NH2; disulfide I:4-II:4), the IC50 at NPY Y1 receptor [2] was 29 ± 7 nM; at NPY Y2 receptor, over 1000 nM.

As to `CCCC[C@H](NC(=O)[C@H](CCCNC(=N)N)NC(=O)[C@H](Cc1c[nH]c2ccccc12)NC(=O)[C@H](CSSC[C@H](NC(=O)[C@@H]1CCCN1C(=O)[C@H](CC(N)=O)NC(=O)[C@@H](N)[C@@H](C)CC)C(=O)N[C@@H](Cc1c[nH]c2ccccc12)C(=O)N[C@@H](CCCNC(=N)N)C(=O)N[C@@H](CCCC)C(=O)N[C@@H](CCCNC(=N)N)C(=O)N[C@@H](Cc1ccc(O)cc1)C(N)=O)NC(=O)[C@@H]1CCCN1C(=O)[C@H](CCCCNC(=O)CN1CCN(CC(=O)O)CCN(CC(=O)O)CCN(CC(=O)O)CC1)NC(=O)[C@@H](N)[C@@H](C)CC)C(=O)N[C@@H](CCCNC(=N)N)C(=O)N[C@@H](Cc1ccc(O)cc1)C(N)=O` [Analog 11] (I: H-IK(DOTA)PCWR[Nle]RY-NH2 / II: H-INPCWR[Nle]RY-NH2; disulfide I:4-II:4), the “Shift of the dose response curve of [Leu31,Pro34]-hPYY to the right” value at NPY Y1 receptor [1] (20 μM analog with increasing concentration of [Leu31,Pro34]-hPYY up to 20 μM) is on record as “at least three orders of magnitude”. For the same compound, the “Functional assay cAMP for Y1” value on NPY Y1 receptor [1] was “Antagonist”. For the same compound, the “Inhibition of forskolin-stimulated cAMP accumulation, analog given alone” value at NPY Y1 receptor [1] (analog alone at 20 μM) is recorded as “has no effect”. For the same compound, at NPY Y1 receptor [2], the “Y1 binding affinity in words (displacement of 125I-hPYY)” value is on record as “high-affinity displacements of ^125I-hPYY” and the half-maximal inhibitory concentration (IC50) worked out at 13 ± 3 nM. For the same compound, on NPY Y2 receptor, the IC50 is over 1000 nM.
